Assay results published in patent EP4817688A2, “DEGRADING PKCß1 TO TREAT CANCER” (Mayo Foundation for Medical Education and Research, priority 2020, dated 2022).
Values joined by “and” are separate entries in the source; they are usually repeats but may differ in a detail not shown here. Equal entries are not always repeated.

Tests used:
[1] = pharmacokinetics in female CD1 mice, plasma by UPLC-MS/MS; type: in vivo; details: plasma
Description: ENDX PROTAC 7 and PROTAC 9 pharmacokinetics were characterized in female CD1 mice. Blood samples were collected from mice anesthetized under isoflurane via retro-orbital eye bleed into tubes containing EDTA and immediately chilled on ice. NaF was added to the EDTA collection tubes to help stabilize the drug in whole blood for the second IV and IP studies with ENDX PROTAC 9, and for the IV and oral studies with PROTAC 7. Plasma and red blood cells were separated immediately by centrifugation in a refrigerated centrifuge at 4°C. The plasma was transferred to a separate tube and immediately frozen at -20°C.
For IV dosing, ENDX PROTAC 9 was dissolved in 10% DMSO, 10% PEG 400, and 80% normal saline for a final concentration of 0.2 mg/mL ENDX PROTAC 9 for the 1 mg/kg IV doses. ENDX PROAC 7 was dissolved in 15% DMSO, 9.44% PEG400, and 55% normal saline for a final concentration of 0.19 mg/mL for the 1 mg/kg IV doses. Blood samples (3 mice per time-point) were collected 5 minutes, 15 minutes, 0.5 hour, 1 hour, 2 hours, 4 hours, 8 hours, and 24 hours after administration of the ENDX PROTAC. […] For oral dosing, ENDX PROTAC 9 (10 mg/kg) and ENDX PROTAC 7 (10 mg/kg) were suspended in 1 mM ascorbic acid:PEG400, 1:1 v/v for a final concentration of 1.0 mg/mL ENDX PROTAC. Blood samples (three mice per time-point) were collected 15 minutes, 0.5 hour, 1 hour, 2 hours, 4 hours, 6 hours, 8 hours, and 24 hours after administering the ENDX PROTAC. For I.P. dosing, ENDX PROTAC 9 (4 mg/kg) was prepared in 1 mM ascorbic acid:PEG400, 1:1 v/v for a final concentration of 0.4 mg/mL ENDX PROTAC 9. Blood samples (three mice per time-point) were collected 15 minutes, 0.5 hour, 1 hour, 2 hours, 4 hours, 6 hours, 8 hours, and 24 hours after administration. Plasma concentrations of ENDX PROTAC 7 and 9 were measured using UPLC-MS/MS.

[2] = test system: PKCβ1, E2F1, and Cyclin D1; assay: western blot in BT549 and MDAMB436 cells (Example 6); type: cell-based; details: 1 µM, 24, 48, and 72 hours
Description: TNBC BT549 and MDAMB436 cells were cultured in phenol-red free DMEM/F12 medium supplemented with 10% fetal bovine serum (FBS) and 1% AA. On day 1, cells were plated at a density of 2 x 10^5 BT549 cells or 4 x 10^5 MDAMB436 cells in a 6-well plate (two wells per treatment). The next day, cells were treated with DMSO, 1 µM Pr-9 (positive control), 1 µM Pr-9-1, 1 µM Pr-9-4, or 1 µM ENDX (negative control). Radioimmunoprecipitation Assay (RIPA) protein lysates were collected 24, 48, and 72 hours after treatment.
For western blot analysis, 25 µg of protein lysates were run on Criterion precast 10% Bis-Tris gel, transferred to PVDF membrane, incubated in TBST-5% milk for one hour, and then incubated overnight with PKCβ1 (SC8049, mouse, 1:200), E2F1 (SC251, mouse, 1:250), Cyclin D1 (CS2978, rabbit, 1:1000), or Actin (Sigma A2228, mouse, 1:10,000 or CS8457, rabbit, 1:2000) primary antibodies in TBST-5% BSA solution. Membranes were washed in TBS-T, incubated for one-hour in HRP-linked anti-rabbit or anti-mouse secondary antibodies in TBST-5% milk, and washed in TBS-T. Bands were developed using west-pico or west-femto chemiluminescent substrate reagents.

Compound: CCC(=C(c1ccc(O)cc1)c1ccc(OCCN(C)C(=O)COCCOCCNC(=O)Cc2ccc3c(c2)CN(C2CCC(=O)NC2=O)C3=O)cc1)c1ccccc1 (centres unmarked) [TC-Pr-009, 2-[2-(2-2-[2-(2,6-dioxopiperidin-3-yl)-1-oxo-2,3-dihydro-1H-isoindol-5-yl]acetamidoethoxy)ethoxy]-N-(2-4-[1-(4-hydroxyphenyl)-2-phenylbut-1-en-1-yl]phenoxyethyl)-N-methylacetamide]
- Concentration ENDX PROTAC 9 ([1]; IV 1 mg/kg, EDTA without NaF, 120 minutes, individual mice, listed as ENDX PROTAC 9, 1 mg/kg): 0.8988 ng/ml and 0.4446 ng/ml and BLD
- Concentration ENDX PROTAC 9 ([1]; IV 1 mg/kg, EDTA without NaF, 240 minutes, individual mice, listed as ENDX PROTAC 9, 1 mg/kg): BLD and 0.0197 ng/ml and 0.3141 ng/ml
- Concentration ENDX PROTAC 9 ([1]; IV 1 mg/kg, EDTA without NaF, 480 minutes, individual mice, listed as ENDX PROTAC 9, 1 mg/kg): 0 ng/ml and BLD (2×)
- Concentration ENDX PROTAC 9 ([1]; IV 1 mg/kg, EDTA without NaF, 1440 minutes, individual mice, listed as ENDX PROTAC 9, 1 mg/kg): BLD and 0 ng/ml (2×)
- Concentration ENDX PROTAC 9 ([1]; IV 1 mg/kg, all data (both IV studies), 30 minutes, listed as ENDX PROTAC 9, 1 mg/kg): 1.662 ng/mL
- Concentration ENDX PROTAC 9 ([1]; IV 1 mg/kg, all data (both IV studies), 120 minutes, listed as ENDX PROTAC 9, 1 mg/kg): BLD
- Concentration ENDX PROTAC 9 ([1]; IV 1 mg/kg, all data (both IV studies), 240 minutes, listed as ENDX PROTAC 9, 1 mg/kg): BLD
- Concentration ENDX PROTAC 9 ([1]; IV 1 mg/kg, second study (NaF), 5 minutes, individual mice, listed as ENDX PROTAC 9, 1 mg/kg): 86.31 ng/mL and 91.46 ng/mL and 34.87 ng/mL
- Concentration ENDX PROTAC 9 ([1]; IV 1 mg/kg, second study (NaF), 15 minutes, individual mice, listed as ENDX PROTAC 9, 1 mg/kg): 8.2 ng/mL and 33.8 ng/mL and 10.72 ng/mL
- Concentration ENDX PROTAC 9 ([1]; IV 1 mg/kg, second study (NaF), 60 minutes, individual mice, listed as ENDX PROTAC 9, 1 mg/kg): 1.18 ng/mL and 1.26 ng/mL and 12.64 ng/mL
- Concentration ENDX PROTAC 9 ([1]; IV 1 mg/kg, second study (NaF), 240 minutes, individual mice, listed as ENDX PROTAC 9, 1 mg/kg): 0.19 ng/mL and 1.11 ng/mL and 0.39 ng/mL
- Concentration ENDX PROTAC 9 ([1]; PO 10 mg/kg, 15 minutes, individual mice, listed as ENDX PROTAC 9, 10 mg/kg): 6.95 ng/mL and 4.77 ng/mL and 2.11 ng/mL
- Concentration ENDX PROTAC 9 ([1]; PO 10 mg/kg, 30 minutes, individual mice, listed as ENDX PROTAC 9, 10 mg/kg): 0.58 ng/mL and 1.05 ng/mL
- Concentration ENDX PROTAC 9 ([1]; PO 10 mg/kg, 60 minutes, individual mice, listed as ENDX PROTAC 9, 10 mg/kg): 6.78 ng/mL and 15.8 ng/mL and 10.6 ng/mL
- Concentration ENDX PROTAC 9 ([1]; PO 10 mg/kg, 120 minutes, individual mice, listed as ENDX PROTAC 9, 10 mg/kg): 0.25 ng/ml and BLD* and 0.55 ng/ml
- Concentration ENDX PROTAC 9 ([1]; PO 10 mg/kg, 240 minutes, individual mice, listed as ENDX PROTAC 9, 10 mg/kg): 0.9 ng/mL and 0.16 ng/mL and 0.14 ng/mL
- Concentration ENDX PROTAC 9 ([1]; PO 10 mg/kg, 360 minutes, individual mice, listed as ENDX PROTAC 9, 10 mg/kg): 2.61 ng/ml and BLD and 0.05 ng/ml
- Concentration ENDX PROTAC 9 ([1]; PO 10 mg/kg, 480 minutes, individual mice, listed as ENDX PROTAC 9, 10 mg/kg): BLD
- Concentration ENDX PROTAC 9 ([1]; PO 10 mg/kg, 1440 minutes, individual mice): BLD
- Concentration ENDX PROTAC 9 ([1]; TABLE 7, titled PO pk (10 mg/kg), 15 minutes, individual mice, listed as ENDX PROTAC 9, 10 mg/kg): 111.19 ng/mL and 133.09 ng/mL
- Concentration ENDX PROTAC 9 ([1]; TABLE 7, titled PO pk (10 mg/kg), 30 minutes, individual mice, listed as ENDX PROTAC 9, 10 mg/kg): 156.42 ng/mL and 83.56 ng/mL
- Concentration ENDX PROTAC 9 ([1]; TABLE 7, titled PO pk (10 mg/kg), 60 minutes, individual mice, listed as ENDX PROTAC 9, 10 mg/kg): 141.51 ng/mL and 93.93 ng/mL
- Concentration ENDX PROTAC 9 ([1]; TABLE 7, titled PO pk (10 mg/kg), 120 minutes, individual mice, listed as ENDX PROTAC 9, 10 mg/kg): 60.32 ng/mL and 106.7 ng/mL and 40.51 ng/mL
- Concentration ENDX PROTAC 9 ([1]; TABLE 7, titled PO pk (10 mg/kg), 240 minutes, individual mice, listed as ENDX PROTAC 9, 10 mg/kg): 17.29 ng/mL and 5.09 ng/mL and 30.55 ng/mL
- Concentration ENDX PROTAC 9 ([1]; TABLE 7, titled PO pk (10 mg/kg), 360 minutes, individual mice, listed as ENDX PROTAC 9, 10 mg/kg): 1.64 ng/mL and 0.75 ng/mL and 2.62 ng/mL
- Concentration ENDX PROTAC 9 ([1]; TABLE 7, titled PO pk (10 mg/kg), 480 minutes, individual mice, listed as ENDX PROTAC 9, 10 mg/kg): 7.23 ng/mL and 1.2 ng/mL
- Concentration ENDX PROTAC 9 ([1]; TABLE 7, titled PO pk (10 mg/kg), 1440 minutes, individual mice, listed as ENDX PROTAC 9, 10 mg/kg): 1.01 ng/mL and 0.33 ng/mL and 0.12 ng/mL
- PKCβ1 protein levels [2]: altered to varying extent
- protein levels of E2F1 and Cyclin D1 ([2]; listed as Pr-9): clearly reduced
